Data from patent publication US20200129476A1, “PARP Inhibitor in Combination with a Glucocorticoid and/or Ascorbic Acid and/or a Protein Growth Factor for the Treatment of Impaired Wound Healing” (AKRIBES BIOMEDICAL GMBH, priority 2017, published 2020).
“Also recorded” adds a separate entry of the source.

Legend:
[1] = tested on: alpha-smooth muscle actin (α-SMA); assay: Immunolocalization of alpha-smooth muscle actin in 2D fibroblast culture (myofibroblast differentiation); format: cell-based, human
Description: Primary human dermal fibroblasts (HDF) were purchased from CELLnTEC, Bern. They were routinely grown in Dulbecco's modified Eagle's medium (DMEM) containing 10% FCS, 2 mM glutamine, and 100 U/ml penicillin/100 μg/ml streptomycin. Media, antibiotics, and glutamine were bought from Lonza. The cells were used at passage 5-15. Cells were trypsinized and seeded at 5000 cells/well in 200 μl into the inner wells of 96-well plates. The outer wells were loaded with sterile water. […] For control samples, 200p1 medium was added instead of specific stimuli. Alternatively, the cells were seeded into 384-well plates at 2500 cells/well directly together with test compounds or growth factors and WE or medium in a total volume of […].
After fixation with paraformaldehyde, the cells were incubated for 1 hour at room temperature with a monoclonal mouse-anti-human antibody against alpha-smooth muscle actin (α-SMA) from e-Bioscience, washed 3 times with PBS and developed with an Alexa Fluor-labelled donkey-anti-mouse IgG (Molecular Probes). The cells were washed 3 times with PBS and examined in a Zeiss ZEISS Observer.Z1 microscope, using the software AxioVision 48.

[2] = tested on: IL-1ß; assay: IL-1ß secretion by HDF in the presence of wound exudate (ELISA); format: cell-based, human; conditions: FIG. 22; WE #43 and #78 used with veliparib
Description: Primary human dermal fibroblasts (HDF) were purchased from CELLnTEC, Bern. They were routinely grown in Dulbecco's modified Eagle's medium (DMEM) containing 10% FCS, 2 mM glutamine, and 100 U/ml penicillin/100 μg/ml streptomycin. Media, antibiotics, and glutamine were bought from Lonza. The cells were used at passage 5-15. Cells were trypsinized and seeded at 5000 cells/well in 200 μl into the inner wells of 96-well plates. The outer wells were loaded with sterile water. The cells were allowed to adhere overnight and then incubated for 72 hours at 37° C. under the following conditions: graded compound concentrations or 20 ng/ml PDGF-BB (Tonbo Biosciences) in the absence or presence of different dilutions of sterile-filtered WE in medium. For control samples, 200p1 medium was added instead of specific stimuli. Alternatively, the cells were seeded into 384-well plates at 2500 cells/well directly together with test compounds or growth factors and WE or medium in a total volume of […].
At the end of the 72-hour incubation period, supernatants were removed for the determination of IL-1ß, and the cells were fixed with 4% paraformaldehyde (Morphisto) for 15 minutes at room temperature and washed 3 times with PBS. A control plate was fixed after the overnight adherence of the cells (day 1) to determine the starting cell number.
IL-1ß levels were determined with a commercial ELISA kit. The amount of IL-1ß contained in the wound exudate added to the cells was subtracted from the total IL-ß in the supernatants in order to determine the cytokine secreted by the cells.

[3] = tested on: primary human dermal fibroblasts (HDF); assay: Fibroblast-derived matrix (FDM) formation assay (3D), with or without wound exudate; format: cell-based
Description: HDF cells were seeded at 5000 cells/well on day −3 into 96-well tissue culture plates (1250 cells/well for 384-well plates), which had been pre-coated for 1 hour at 37° C. with 0.2% gelatin solution (Sigma). When the cells reached confluence (=day 0), a matrix promoting supplement (vitamin C: 2-phospho-L-ascorbic acid trisodium salt, 100 μg/ml; Sigma) was added together with test samples containing PDGF-BB, TGF-ß1 or graded concentrations of compounds −/+WE as described for the HDF proliferation assay. After 4 days, medium was replaced by fresh vitamin C- and stimulus- as well as compound-containing medium, maintaining the conditions initiated on day 0. TGF-ß1 and PDGF-BB were included as positive controls to promote FDM formation and cell growth, respectively. After a total incubation time of 8 days, FDM production was measured in fixed cultures via SRB staining and evaluated as described above. In some cases, the experiment was stopped and evaluated already on day 4.
Low molecular weight compounds (see list in Table 1) were dissolved in DMSO (Bioreagent for cell culture, Sigma) at 10 mM or 100 mM and diluted at least 1:1000 in medium for cellular assays (final DMSO concentration ≤0.1%). Compounds were typically tested in half-logarithmic dilution series (1:3.33), starting at 10 μM or 100 μM as the highest compound concentration.
Cells were incubated with compounds for 72 hours in proliferation assays and up to 8 days for FDM assay (refreshed after 4 days). When compounds were tested for their effect on WE stimulation, the incubation of cells with compounds was started and ended simultaneously with WE-incubation.

In the case of `C[C@]1(c2nc3c(C(N)=O)cccc3[nH]2)CCCN1` [veliparib, 2-((2R)-2-methylpyrrolidin-2-yl)-1H-benzimidazole-4-carboxamide], the “staining for α-SMA” value ([1]; absence of WE, TGF-ß 20 ng/ml, veliparib 10 μM) is reported as “has no effect; also recorded: had no effect”, the “staining for α-SMA, veliparib in combination with TGF-ß” value ([1]; presence of WE #78, veliparib 10 μM + TGF-ß 20 ng/ml) is reported as “more strongly stained cells than veliparib alone” and the “IL-1ß secretion induced by wound exudate” value [2] is reported as “reducing IL-1ß secretion”. The “FDM formation, veliparib combined with glucocorticoid” value ([3]; WE #49, non-diabetic, non-immunosuppressed patient (FIG. 8)) was “could be enhanced with glucocorticoids in another non-diabetic and non-immunosuppressed patient, but not vice versa; also recorded: could be enhanced with glucocorticoids, but not vice versa”, the “FDM formation, veliparib combined with glucocorticoid” value ([3]; WE #78, patient with diabetes, immunosuppression after kidney transplantation (FIG. 7)) was “enhances the effect of glucocorticoids” and the “FDM formation, combination of veliparib with dexamethasone versus each alone” value ([3]; WE present, microscopy (FIG. 6)) was “even superior to each substance alone”. The “fibroblast-derived matrix (FDM) formation” value ([3]; presence of WE #78 (FIG. 9)) was “strong positive effect” and the “fibroblast-derived matrix (FDM/ECM) formation” value ([3]; presence of wound exudate, WE not specified (FIG. 6: microscopy)) was ““cleaned up” WE-induced fibroblast matrix inhibition”.
